B1: IL1-Ra: Rat recombinant IL-1 receptor antagonist, R&D systems (protein, UniProt P25086 27-178, looked up)
Interleukin-1 receptor …: HPAGKRPCKMQAFRIWDTNQKTFYLRNNQLIAGYLQGPNTKLEEKIDMVPIDFRNVFLGIHGGKLCLSCVKSGDDTKLQLEEVNITDLNKNKEEDKRFTFIRSETGPTTSFESLACPGWFLCTTLEADHPVSLTNTPKEPCTVTKFYFQEDQ

Legend:
Aβ = Aβ level in cultured rat neurons and astrocytes; type: cell-based, wistar rat; details: memantine 5 μM, donepezil 10 μM, docosahexaenoic acid 10 μM; for Fold reduction in Aβ: metal mixture-induced, rat astrocytes and neurons, α-tocopherol 10 μM; for effect on levels of Aβ in the cellular model of AD: Vitamin E 10 μM
Experimental: (§1) The pregnant wistar rats were sacrificed by cervical dislocation and the embryos were removed on the 16th day of gestation. The embryonic brain tissues were mechanically dissociated into individual cells in dissection media containing Glucose (1M), sucrose (1 M), HEPES Buffer (1M) and Hank's salt (1×). The resulting cells were centrifuged (1,500 rpm, 5 min), resuspended in NEUROBASAL medium containing B-27 supplement (Invitrogen, Carlsbad, Calif.), L-glutamine (0.5 mM), penicillin (100 U/ml) and streptomycin (100 μg/ml) and plated into 60 mm dishes. The culture media was changed every 2 days.
(§2) The astrocytes from rat brain were isolated and cultured. Briefly, prefrontal cortices of 1-day-old wistar rats were dissected out and digested with trypsin for 10 min at 37° C. A single cell suspension was obtained by triturating, and the cells were seeded onto poly-L-lysine (100 μg/ml)-coated plates. The cultures were maintained in DMEM/F12 with 10% heat-inactivated fetal bovine serum, 100 U/ml penicillin, and […] streptomycin. The confluent cells were rinsed twice with serum-free media and then detached with 0.25% trypsin with ethylenediaminetetraacetic acid and sub-cultured.
(§3) The astrocytes and neurons were grown to 80% confluence, pre-incubated in reduced serum (0.5% fetal bovine serum [FBS]) medium for 2 h, and then treated with a mixture of As, Cd, and Pb (Group 1 and 2, Table 2 for neurons, and Table 3 for astrocytes) in the form of NaAsO2, CdCl2 and Pb(C2H3O2)2, respectively in Milli Q water for 16 h, and incubated in a humidified tissue culture incubator at 37° C. with 5% CO2-95% air. The NaAsO2, and CdCl2 readily dissolved in water, while Pb(C2H3O2)2 was dissolved by adding 0.043% acetic acid in water. To identify the synergistic nature, the astrocytes and neurons were treated with metal mixture as well as individual metals (Group 1-5 of Table 2 for neurons, and Table 3 for astrocytes).
(§4) The astrocytes and neurons were treated, washed with PBS and suspended in 100 μl of CelLytic™ MT Cell Lysis Reagent protease inhibitor cocktail (a mixture of 4-(2-aminoethyl)benzenesulfonyl fluoride, pepstatinA, E-64, bestatin, leupeptin, and aprotinin)] and kept on ice for 20 min. The cells were homogenized using a Teflon homogenizer and centrifuged at 15,000 rpm for 30 min at 4° C., and the supernatant was collected. SDS-PAGE and western blotting was done with APP (1:1000), Aβ-40 (1:1000), Aβ-42 (1:1000), IL-1α(1:1000), IL-1β (1:1000) and IL-1R1. […] The samples were detected by chemiluminescence with super signal west femto max substrate. Relative expression of each protein was determined by densitometric quantification of blots using VersaDoc Gel Imaging System (BioRad, Hercules, CF). […]

APP [1] = experiment: APP level in cultured rat neurons and astrocytes; type: cell-based, wistar rat; details: memantine 5 μM, donepezil 10 μM, docosahexaenoic acid 10 μM; for Fold reduction in APP: metal mixture-induced, rat astrocytes and neurons, α-tocopherol 10 μM; for effect on levels of APP in the cellular model of AD: Vitamin E 10 μM
Experimental: as §1, §2, §3, §4

Aβ-42 = Aβ-42 level in rat brain cortex and hippocampus, western blotting; type: in vivo, wistar rat
Experimental: (§5) All animal-handling procedures were carried out in accordance with the current regulations of the Indian Institute of Toxicology Research Animal Ethics Committee, and with its prior approval for using the animals. The pregnant female wistar rats were housed in a 12-h […] cycle environment with ad libitum diet and water. The rats were divided into six groups (n=30 per group), gavage-treated with the metal mixture (Table 1). The metal mixture treatment was at two concentrations (1× and 10×; Groups 1-3, Table 1) for dose-dependent study. To identify the synergistic nature, the animals were treated in mixture as well as individually with the metals (Group 1-6 of Table 1). The heavy metals were As, Cd and Pb, fed in the form of NaAsO2, CdCl2 and Pb(C2H3O2)2, respectively, in Milli Q water. The NaAsO2, and CdCl2 readily dissolved in water, while Pb(C2H3O2)2 was dissolved by adding 0.043% acetic acid in water. The dams (pregnant rats and lactating mother rats) were daily treated with the metals in water from gestation day 5 (G-05) until the pups weaned (postnatal day-21, P-21). From P-22, the postnatal rats were directly treated with the metals until P-90. The tissues were collected at P-24, P-60 or P-90. The male rats were selected for the study, and rats from separate litters served as independent subjects.
(§6) Tissues of the cerebral cortex and hippocampus from five to seven postnatal wistar rats were harvested, snap-frozen in liquid nitrogen, and stored at −80° C. until further investigation. SDS-PAGE and western blotting was performed with APP (1:1000), Aβ-40 (1:1000), Aβ-42 (1:1000), APP-CTF-β (1:1000), presenilin (1:1000), IL-1α (1:1000), IL-1β (1:1000) and IL-1R1 (1:1000), RAGE (1:1000) and pGP (1:1000). […] The samples were detected by chemiluminescence with super signal west femto max substrate. Relative expression of each protein was determined by densitometric quantification of blots using VersaDoc Gel Imaging System (BioRad, Hercules, CF). […]

Aβ-40 = experiment: Aβ1-40 level in rat cortex and hippocampus, ELISA; type: in vivo, wistar rat
Experimental: as §5

APP [2] = experiment: APP level in rat brain cortex and hippocampus, western blotting; type: in vivo, wistar rat
Experimental: as §5, §6

[3] = memantine 10 mg/kg body weight, donepezil 1.5 mg/kg body weight
[4] = metal mixture-induced, rat brain, two week treatment, memantine 10 mg/kg, donepezil 1.5 mg/kg with 10X-MM in P-90 rats
[5] = hippocampal insertion, once at P-90 in 10X-MM-treated rats, dissected after 10 days

Row | Molecule | Fold reduction in Aβ (Aβ) | Fold reduction in APP (APP [1]) | effect on levels of Aβ in the cellular model of AD (Aβ) | effect on levels of APP in the cellular model of AD (APP [1]) | also measured
1 | CC/C=C\C/C=C\C/C=C\C/C=C\C/C=C\C/C=C\CCC(=O)O [Docosahexaenoic acid] | 2.3 ± 0.0853 fold | 1.25 ± 0.0265 fold |  |  | 
2 | CC12CC3CC(C)(C1)CC(N)(C3)C2 [Memantine] | 1.4 ± 0.052 fold | 1.3 ± 0.0392 fold | suppressed | suppressed | effect on Aβ1-42 in the non-transgenic wistar rat model of AD (Aβ-42; [3]): suppress; fold reduction in Aβ-42 (Aβ-42; [4]): 2.42 ± 0.0143 fold; effect on Aβ1-40 in the non-transgenic wistar rat model of AD (Aβ-40; [3]): suppress; fold reduction in Aβ-40 (Aβ-40; [4]): 2.54 ± 0.0099 fold; effect on APP in the non-transgenic wistar rat model of AD (APP [2]; [3]): suppress; Fold reduction in APP (APP [2]; [4]): 1.69 ± 0.0510 fold
3 | Cc1c(C)c2c(c(C)c1O)CC[C@@](C)(CCC[C@H](C)CCC[C@H](C)CCCC(C)C)O2 [α-tocopherol] |  |  | suppressed | suppressed | 
4 | B1 |  |  |  |  | effect on Aβ1-42 in As, Cd and Pb-mixture treated rat brain (Aβ-42; [5]): suppressed; effect on APP in As, Cd and Pb-mixture treated rat brain (APP [2]; [5]): suppressed

— US20160081312A1, “MODEL OF ALZHEIMER'S DISEASE” (priority 2013, published 2016)
